Type in all cases: cell-based
In test [1] the test system is U138 glioblastoma cell line. The experiment in a line: In-vitro cell survival assay (Alamar blue), U138. The settings on record: U138, one day after compound addition. The method, then:
(§1) Five tumor-derived cell lines were treated with the ROS inhibitor compounds and cell survival was monitored to determine the cancer prohibition effects of the compounds. The cell lines included HeLa, a cervical cancer cell line, and four glioblastoma cell lines U138, U87, LN18, and U118. The basic protocol for the in-vitro cell survival assay is the same for all five cell lines. In particular, the cells were seeded in 96-well plates at 2-5×10^3 cells/well (cell line dependent) in culture medium. The cells were grown for 2 days before the compounds were dissolved in DMSO and added to final concentrations of 100 uM, 10 uM, or 1 uM (DMSO final concentration 0.5%). The cell culture was then assayed one day after the addition of the compounds. The assay used Alamar blue as a redox-sensitive dye that interrogates mitochondrial fitness of cells, and these assays provided a readout for cell proliferation and viability. The raw values were normalized to an average of several vehicle control wells and are presented as percent decrease in proliferation/viability, which is converted to half maximal effective concentration (EC50) values.
(Resazurin is reduced to fluorescent resorufin, in cell work by metabolically active cells.)

Test [2] concerns HeLa cervical cancer cell line. In words: In-vitro cell survival assay (Alamar blue), HeLa. The settings on record: one day after compound addition. The method, then: as §1
Test [3] deals with U87 glioblastoma cell line. The experiment in a line: In-vitro cell survival assay (Alamar blue), U87. The settings on record: U87, one day after compound addition. Here is the method:
as §1

The test system of test [4] is LN18 glioblastoma cell line. In words: In-vitro cell survival assay (Alamar blue), LN18. The settings on record: LN18, one day after compound addition. Here is the method: as §1
Test [5] concerns U118 glioblastoma cell line. In words: In-vitro cell survival assay (Alamar blue), U118. The conditions noted are these: U118, one day after compound addition. The method, then: as §1

pEC50: −log10 of the molar value.

Consider `O=C(NC[C@H]1Cc2cc(-c3cncnc3)cc(Cl)c2O1)c1cccc(Cn2cccn2)c1`, for which the pEC50 (as a rule, −log10 of the EC50, conventionally taken in molar units) is below 4.00 in test [1] (24 h); below 4.00 in test [2] (Homo sapiens, 24 h); below 4.00 in test [3] (24 h); below 4.00 in test [4] (Homo sapiens, LN-18, 24 h); below 4.00 in test [5] (24 h).
As for `Cc1cc(C)n(-c2cccc(C(=O)NC[C@H]3Cc4cc(Cl)cc(-c5cnccn5)c4O3)c2)n1`, the negative logarithm of the EC50 (pEC50) in test [1] (24 h) was below 4.00; in test [2] (Homo sapiens, 24 h), 4.15; in test [3] (24 h) it was 4.03; in test [4] (Homo sapiens, LN-18, 24 h) it was 4.19; in test [5] (24 h), 4.02.
For `COc1ccccc1C1C(C#N)=C(N)Oc2[nH]nc(C(F)(F)F)c21` (stereo not shown), the pEC50 is 4.08 in test [1]; 4.05 in test [2]; 4.10 in test [3]; 4.21 in test [4]; below 4.00 in test [5].
Regarding `Nc1nc(Nc2ccc(C(=O)N3CCC[C@H]4CCCC[C@H]43)cc2)cc(Nc2ccc3ncsc3c2)n1`, the pEC50 in test [1] (24 h) was below 4.00; in test [2] (Homo sapiens, 24 h) it was 4.24; in test [3] (24 h) it was 4.52; in test [4] (Homo sapiens, LN-18, 24 h), 4.85; in test [5] (24 h), below 4.00.
With `COc1ccc(C(NC(=O)c2[nH]nc(-c3ccccc3)c2C)c2ccncc2)cc1` (stereo not shown), the pEC50 was below 4.00 in test [1]; below 4.00 in test [2]; below 4.00 in test [3]; 4.23 in test [4]; below 4.00 in test [5].
For `O=C(NC[C@@H]1CCCO1)c1cccc(Nc2nccc(Nc3ccc4ncsc4c3)n2)c1`, the pEC50 in test [1] (24 h) is below 4.00; in test [2] (Homo sapiens, 24 h), 4.96; in test [3] (24 h), 4.80; in test [4] (Homo sapiens, LN-18, 24 h), 4.82; in test [5] (24 h), below 4.00.
On to `O=C(c1ccccc1)n1nc(-c2ccco2)nc1NCc1ccccc1`, for which the pEC50 in test [1] (24 h) is below 4.00; in test [2] (Homo sapiens, 24 h), below 4.00; in test [3] (24 h), below 4.00; in test [4] (Homo sapiens, LN-18, 24 h), below 4.00; in test [5] (24 h), below 4.00.
On to `Cc1ccc(Cn2c(NCc3nc4ccccc4n3C)nc3ccccc32)cc1` [drawing 355], for which the pEC50 in test [1] (24 h) was below 4.00; in test [2] (Homo sapiens, 24 h), below 4.00; in test [3] (24 h), below 4.00; in test [4] (Homo sapiens, LN-18, 24 h), below 4.00; in test [5] (24 h) it was below 4.00.
With `NC(=O)c1c(NC(=O)[C@H]2CC(=O)N(c3ccccc3)C2)sc2c1CCCC2` [drawing 356], the pEC50 is below 4.00 in test [1] (24 h); below 4.00 in test [2] (Homo sapiens, 24 h); below 4.00 in test [3] (24 h); below 4.00 in test [4] (Homo sapiens, LN-18, 24 h); below 4.00 in test [5] (24 h).
Turning to `Clc1ccc2nc(NCc3ccccn3)nc(-c3ccccc3)c2c1` [drawing 357], the pEC50 in test [1] (24 h) was below 4.00; in test [2] (Homo sapiens, 24 h), below 4.00; in test [3] (24 h), 4.15; in test [4] (Homo sapiens, LN-18, 24 h), 4.80; in test [5] (24 h), below 4.00.
In the case of `NS(=O)(=O)c1ccc(CCNC(=O)c2cc(-c3cccs3)nc3ccccc23)cc1` [drawing 358], the pEC50 in test [1] (24 h) was below 4.00; in test [2] (Homo sapiens, 24 h) it was below 4.00; in test [3] (24 h), below 4.00; in test [4] (Homo sapiens, LN-18, 24 h), 4.60; in test [5] (24 h) it was 4.54.
For the molecule `Cc1[nH]c2nc(NCc3cccc([N+](=O)[O-])c3)nn2c(=O)c1Cc1ccccc1` [drawing 359], the pEC50 was below 4.00 in test [1] (24 h); below 4.00 in test [2] (Homo sapiens, 24 h); 4.35 in test [3] (24 h); below 4.00 in test [4] (Homo sapiens, LN-18, 24 h); below 4.00 in test [5] (24 h).
As for `COc1ccccc1-c1cc(C(F)F)n2ncc(C(=O)NCc3cccnc3)c2n1` [drawing 361], the pEC50 in test [1] (24 h) is below 4.00; in test [2] (Homo sapiens, 24 h), below 4.00; in test [3] (24 h), 4.66; in test [4] (Homo sapiens, LN-18, 24 h), 4.80; in test [5] (24 h), below 4.00.
`CCOC(Nc1cc(-c2sccc2-n2c(C)ccc2C)[nH]n1)OCC` [drawing 364]: the pEC50 in test [1] was below 4.00; in test [2], below 4.00; in test [3], 4.59; in test [4], below 4.00; in test [5], below 4.00.
In the case of `O=c1cc(Oc2ccccc2)c(-c2nc[nH]n2)nn1-c1ccccc1` [drawing 365], the pEC50 in test [1] is below 4.00; in test [2], below 4.00; in test [3] it was 4.59; in test [4], below 4.00; in test [5], below 4.00.
For the molecule `O=C(NNc1nc2ccccc2nc1Cc1ccccc1)c1cccc(Cl)c1` [drawing 366], the pEC50 in test [1] (24 h) is below 4.00; in test [2] (Homo sapiens, 24 h), below 4.00; in test [3] (24 h) it was 4.60; in test [4] (Homo sapiens, LN-18, 24 h) it was 4.66; in test [5] (24 h), below 4.00.
As to `Cc1cccc(Nc2ccnc(Nc3cccc(C(=O)N4CC=CCC4)c3)n2)c1` [drawing 371], the negative logarithm of the EC50 (pEC50) was below 4.00 in test [1] (24 h); 4.60 in test [2] (Homo sapiens, 24 h); 4.77 in test [3] (24 h); 4.89 in test [4] (Homo sapiens, LN-18, 24 h); 4.55 in test [5] (24 h).
In the same order, the values of `O=C(NCCc1ccc(F)cc1)c1cccc(Nc2nccc(Nc3ccc4ncsc4c3)n2)c1` [drawing 372] are 5.10, 5.30, 5.00, 5.22 and 5.05.
In the same order, the values of `CCN(CC)CCNC(=O)c1cccc(Nc2nccc(Nc3ccc4ncsc4c3)n2)c1` [drawing 373] are 4.35, 4.82, 4.43, 4.82 and 4.46.
For `Nc1nc(Nc2ccc(C(=O)NCc3ccco3)cc2)cc(Nc2ccc3ncsc3c2)n1` [drawing 375], in that order: below 4.00, 4.36, 4.49, 4.74 and 4.57.
As to `O=C(NCc1ccco1)c1cccc(Nc2nccc(Nc3ccc4ncsc4c3)n2)c1` [drawing 376], the pEC50 in test [1] (24 h) is 4.46; in test [2] (Homo sapiens, 24 h) it was 5.00; in test [3] (24 h), 4.68; in test [4] (Homo sapiens, LN-18, 24 h) it was 5.00; in test [5] (24 h), 4.74.
On to `COc1cccc(Nc2cc(Nc3cccc(C(=O)N4CCN(C(C)=O)CC4)c3)nc(N)n2)c1` [drawing 377], for which the pEC50 in test [1] (24 h) is below 4.00; in test [2] (Homo sapiens, 24 h), below 4.00; in test [3] (24 h) it was below 4.00; in test [4] (Homo sapiens, LN-18, 24 h) it was 4.19; in test [5] (24 h) it was 4.04.
Take `CC(=O)N[C@@H]1CCN(C(=O)c2cccc(Nc3cc(N(C)c4cccc(C)c4)ncn3)c2)C1` [drawing 378]: the negative logarithm of the EC50 (pEC50) was below 4.00 in test [1] (24 h); below 4.00 in test [2] (Homo sapiens, 24 h); below 4.00 in test [3] (24 h); below 4.00 in test [4] (Homo sapiens, LN-18, 24 h); below 4.00 in test [5] (24 h).
For the molecule `Cc1cc(-c2ccccc2)c2ccc(N)nc2n1` [drawing 480], the pEC50 in test [1] (24 h) was 4.34; in test [2] (Homo sapiens, 24 h), 4.24; in test [5] (24 h), below 4.00.
In the same order, the values of `Nc1cccc2cccc(N=C(CC(=O)O)C(=O)O)c12` [drawing 481] are below 4.00, 4.20 and below 4.00.
For `COc1ccc(NC(=O)CC2=Nc3cccc4cccc(c34)NC2=O)cc1` [drawing 482], in that order: below 4.00, 4.77 and below 4.00.
Take `O=C(CC1=Nc2cccc3cccc(c23)NC1=O)NCc1cccc(I)c1` [drawing 483]: the pEC50 is below 4.00 in test [1] (24 h); 5.00 in test [2] (Homo sapiens, 24 h); 4.29 in test [5] (24 h).
